Test results: patent US8912360B2, “Methods for preparing ritodrine hydrochloride” (Lundbeck Pharmaceuticals Italy S.p.A., priority 2010, dated 2014)

Experiment: Stability / hygroscopicity: water content through Karl Fischer titration after storage
Format: physicochemical
Conditions: for hygroscopicity: hydrochloride
Description: The water content was determined through Karl Fischer (KF) titration.
Ritodrine hydrochloride Form I is kept at 40° C. and a relative humidity of 75% for 24 hours. The water content measured through Karl Fischer titration is 0.5% (weight/weight).
Ritodrine hydrochloride Form II is placed in a double polyethylene bag with a desiccant (silica gel) kept in standard conditions for storing active ingredients. After some months the water content of such Ritodrine hydrochloride measured through Karl Fischer titration is 2.2% (weight/weight).

SMILES	water absorption (exposed to a relative humidity of 75%)	hygroscopicity	water content measured through Karl Fischer titration (kept at 40° C. and a relative humidity of 75% for 24 hours)	water content measured through Karl Fischer titration (double polyethylene bag with a desiccant (silica gel), standard conditions for storing active ingredients, after some months)	water absorption (not exposed directly to a humid environment, normal controlled storing conditions)
C[C@@H](NCCc1ccc(O)cc1)[C@@H](O)c1ccc(O)cc1.Cl (racemic) [Ritodrine hydrochloride Form I, 4-((1RS,2SR)-1-hydroxy-2-{[2-(4-hydroxyphenyl)ethyl]amino}propyl)phenol hydrochloride]	does not absorb water	non-hygroscopic	0.5 % (weight/weight)	–	–
C[C@@H](NCCc1ccc(O)cc1)[C@@H](O)c1ccc(O)cc1.Cl (racemic) [Ritodrine hydrochloride Form II, 4-((1RS,2SR)-1-hydroxy-2-{[2-(4-hydroxyphenyl)ethyl]amino}propyl)phenol hydrochloride]	–	hygroscopic	–	2.2 % (weight/weight)	absorbs water
